Experimental data: patent US8586552B2, “4,6-substituted 2,5-dideoxystreptamine aminoglycoside antibiotics” (SelectX Pharmaceuticals, Inc., priority 2012, dated 2013)
Values after ≈ are worked out from the molar mass of the structure shown.

Key:
[1] = system: Pseudomonas aeruginosa PR1 (clinical isolate with intermediate aminoglycoside resistance); assay: MIC against Pseudomonas aeruginosa clinical isolate PR1; type: cell-based; conditions: Pseudomonas aeruginosa resistant strain PR1
[2] = system: Klebsiella pneumoniae (Kpn, KPWT, ATCC #700603); assay: MIC against Klebsiella pneumoniae reference strain KPWT; type: cell-based; conditions: Klebsiella pneumonia KPWT, Table 5 (unit not given); in µg/mL
[3] = system: Pseudomonas aeruginosa PR3 (high-level, efflux-mediated, pan-aminoglycoside resistance); assay: MIC against Pseudomonas aeruginosa clinical isolate PR3; type: cell-based; conditions: Pseudomonas aeruginosa resistant strain PR3
[4] = system: resistant strain of P. aeruginosa (P. aeruginosa 6294 MLP-3); assay: Rat neutropenic thigh model against resistant P. aeruginosa; type: in vivo
Method: The compound identified as SXP 2523 was further tested in vivo against a resistant strain of P. aeruginosa. Twenty male Sprague Dawley rats were rendered neutropenic by treatment with cyclophosphamide on day −4 and day −1 with 100 mg/kg and 75 mg/kg, respectively. Rats were infected with P. aeruginosa 6294 MLP-3, via injection into the right thigh muscle of 0.1 mL per rat. Two hours post infection rats were treated intravenously with either SXP-2523 or amikacin in a total dose of 10 or 60 mg/kg, respectively. The test article and control agent were delivered at 2, 4, and 6 hours post infection. Five rats were treated with each drug concentration. One group of five rats were euthanized at initiation of treatment and thigh CFUs were determined (T=Rx). Twenty-four hours post infection; rats were euthanized by CO2 inhalation. The right thigh muscles of the rats were aseptically removed, weighed, homogenized, serially diluted, and plated on BHI medium. The plates were incubated overnight at 37° C. in 5% CO2. CFU per gram of thigh was calculated by enumerating the plated colonies then adjusting for serial dilutions and the weight of the thigh.

[5] = system: Acinetobacter baumannii AB2; assay: MIC against Acinetobacter baumannii clinical isolate AB2; type: cell-based
Source text: (§1) Acinetobacter baumannii is another clinically important and very challenging gram negative pathogen. Members of the Acinetobacter genus, including baumannii, have a remarkable ability to upregulate and acquire resistance determinants. Coupled with its ability to survive for prolonged periods in a hospital environment, A. baumannii is an emerging threat for healthcare institutions globally. We acquired clinical isolates of Acinetobacter baumannii and used this panel to test compounds for anti-Acinetobacter activity. We first tested reference AGs against our panel of Aba strains.

[6] = system: Pseudomonas aeruginosa PR2 (clinical isolate with intermediate aminoglycoside resistance); assay: MIC against Pseudomonas aeruginosa clinical isolate PR2; type: cell-based; conditions: Pseudomonas aeruginosa resistant strain PR2
[7] = system: Acinetobacter baumannii AB3; assay: MIC against Acinetobacter baumannii clinical isolate AB3; type: cell-based
Source text: as §1

[8] = system: Acinetobacter baumannii AB1; assay: MIC against Acinetobacter baumannii clinical isolate AB1; type: cell-based
Source text: as §1

[9] = system: Klebsiella pneumoniae KR1 (clinical isolate with intermediate aminoglycoside resistance); assay: MIC against Klebsiella pneumoniae clinical isolate KR1; type: cell-based; conditions: Klebsiella pneumonia KR1; in µg/mL
Source text: (§2) Klebsiella pneumoniae (Kpn) and Escherichia coli (Eco) are gram-negative (like Pae), enteric pathogens with increasing clinical relevance. Many clinical isolates of Kpn and Eco harbor extended-spectrum beta-lactamases and are no longer sensitive to most beta-lactam antibiotics. We acquired clinical isolates of Klebsiella pneumoniae and Escherichia coli (Micromyx LLC, Kalamazoo, Mich.) and used this panel to test compounds for anti-enteric activity.

[10] = system: fifty resistant contemporary clinical isolates of Acinetobacter baumannii; assay: MIC90 against panel of resistant clinical isolates of Acinetobacter baumannii; type: cell-based
Source text: As in the case of Pseudomonas aeruginosa and Klebsiella pneumoniae, we considered whether the SAR observed against select Acinetobacter baumannii strains 1, 2 or 3 was indicative of general potency. […] Using this stringent Acinetobacter baumannii panel, we tested a subset of compounds of the invention.

[11] = system: Klebsiella pneumoniae KR2 (clinical isolate with intermediate aminoglycoside resistance); assay: MIC against Klebsiella pneumoniae clinical isolate KR2; type: cell-based; conditions: Klebsiella pneumonia KR2
Source text: as §2

[12] = system: Acinetobacter baumannii (Aba, ABWT, ATCC #BAA-747); assay: MIC against Acinetobacter baumannii reference strain ABWT; type: cell-based
[13] = system: fifty resistant contemporary clinical isolates of Klebsiella pneumoniae; assay: MIC90 against panel of resistant clinical isolates of Klebsiella pneumoniae; type: cell-based; conditions: stringent panel of resistant clinical isolates, Table 5
Source text: Using this stringent Klebsiella pneumoniae panel, we tested a subset of compounds of the invention.

[14] = system: Pseudomonas aeruginosa (Pae, PAWT, ATCC #27853); assay: MIC against Pseudomonas aeruginosa reference strain PAWT; type: cell-based; conditions: Pseudomonas aeruginosa wild type PAWT
[15] = system: panel of E. coli strains; assay: MIC90 against a panel of E. coli strains; type: cell-based; conditions: in µg/mL
[16] = resistant P. aeruginosa, Log CFU/thigh, total dose 10 mg/kg SXP-2523 or 60 mg/kg amikacin iv

Q: `NCCCNCC1OC(OC2C(NC(=O)C(O)CCN)CC(N)C(OC3OC(CN)C(O)CC3N)C2F)C(O)C(N)C1O` (stereo not drawn) [SXP 2523] was tested. Which “MIC PR1” value [1] did it give?
A: The value was 1 to 2 µg/mL.

Q: What about the “MIC KPWT” value [2] of the same compound?
A: Its value is 0.5-1.

Q: What about the “MIC PR3” value [3] of the same compound?
A: The value was 4 µg/mL (≈ 6.38 µM).

Q: What about the “efficacy against amikacin-resistant P. aeruginosa in animal model” value ([4]; rat neutropenic thigh model, total dose 10 mg/kg iv) of the same compound?
A: The value was “effective against amikacin-resistant P. aeruginosa”.

Q: What about the “Change from 24 hr. control” value [4, 16] of the same compound?
A: Its value is −4.94.

Q: What about the “Change from T = Rx controls” value [4, 16] of the same compound?
A: The value was −1.78.

Q: And the “Log CFU/thigh” value ([4]; resistant P. aeruginosa, neutropenic male Sprague Dawley rats, iv at 2, 4, 6 h post infection, total dose 10 mg/kg SXP-2523 or 60 mg/kg amikacin, 24 h post infection)?
A: The value was 1.71 Log CFU/thigh.

Q: What about the “MIC AB2” value [5] of the same compound?
A: The value was 1 µg/mL (≈ 1.6 µM).

Q: And the “MIC PR2” value [6]?
A: The value was 0.5 µg/mL (≈ 0.798 µM).

Q: What about the “MIC AB3” value [7] of the same compound?
A: Its value is 4 to 8 µg/mL.

Q: What about the “MIC AB1” value [8] of the same compound?
A: The value was 2 to 4 µg/mL.

Q: And the “MIC KR1” value [9]?
A: Its value is 0.5-1.

Q: What about the “MIC90 Acinetobacter baumannii” value [10] of the same compound?
A: The value was 4 µg/mL (≈ 6.38 µM).

Q: What about the “MIC KR2” value [11] of the same compound?
A: Its value is 0.5-1.

Q: What about the “MIC ABWT” value [12] of the same compound?
A: The value was 0.5 µg/mL (≈ 0.798 µM).

Q: What about the MIC90 Klebsiella pneumonia [13] of the same compound?
A: The MIC90 Klebsiella pneumonia was 1 µg/mL (≈ 1.6 µM).

Q: What about the “MIC PAWT” value [14] of the same compound?
A: The value was 0.25 µg/mL (≈ 0.399 µM).

Q: What about the “MIC90 E. coli” value [15] of the same compound?
A: Its value is 2.
